Converted amounts (≈) assume the structure as drawn. Values belong to the compound of their own block, whether it stands above or below them.
Assays:
[1] = In vivo pharmacokinetic assay in rats; set-up: species or system SD male rats
Method: SD male rats aged 7 to 10 weeks were selected. The rats were fasted for at least 12 hours before the administration, and resumed feeding 4 hours after the administration. The rats had free access to water throughout the assay period.
(§1) On the day of the assay, the animals in the intravenous group were administrated the corresponding compound through a single injection in the tail vein at an administration volume of 5 mL/kg; the oral group were administrated the corresponding compound through a single intragastric gavage at an administration volume of 10 mL/kg. The animals were weighed before administration, and the administration volume was calculated based on the body weight. The time for collecting samples was: 0.083 (the injection group), 0.25, 0.5, 1, 2, 4, 6, 8, 24 h. About 200 μL of whole blood was collected from the jugular vein at each time point to prepare plasma for concentration determination by high-performance liquid chromatography-tandem mass spectrometry (LC-MS/MS). All animals were euthanized by CO2 anesthesia after collecting the PK samples at the last time point. The plasma concentrations were processed by non-compartmental model of WinNonlin™ Version 6.3 (Pharsight, Mountain View, Calif.) pharmacokinetic software, and the pharmacokinetic parameters were calculated by the linear logarithm trapezoidal method.

[2] = In vivo pharmacokinetic assay in dogs; set-up: species or system Male Beagle dogs; conditions: Oral, 30 mg/kg
Method: Male Beagle dogs older than 6 months of age were selected. On the day of the assay, the animals were given the corresponding compound by single injection in the cephalic or saphenous vein in a volume of 1 mL/kg for the intravenous group; and by single gavage in a volume of 5 mL/kg for the oral group. The animals were weighed before administration and the dosing volume of the compound was calculated based on their body weight. About 0.5 mL of whole blood was collected from the cephalic or saphenous vein at each time point to prepare plasma for determination of concentrations by high performance liquid chromatography-tandem mass spectrometry (LC-MS/MS). Plasma concentrations were processed using non-compartment model of WinNonlin™ Version 6.3 or above (Pharsight, Mountain View, Calif.) pharmacokinetic software, and pharmacokinetic parameters were calculated using the linear log trapezoidal method.

[3] = test system: Ba/F3-TEL-FLT3-D835Y subcutaneous allograft tumor; test: Pharmacodynamics assay of Ba/F3-TEL-FLT3-D835Y cells in mice with subcutaneous allograft tumor; type: in vivo; conditions: for Average tumor volume Day 0: Day 0, before dosing; for % Inhibition rate / Average tumor volume Day 15: Oral, Once a day
Method: The efficacy of the assay compounds in the BALB/c nude mouse model of subcutaneous allografts of Ba/F3-TEL-FLT3-D835Y cells was evaluated in vivo.
Ba/F3-TEL-FLT3-D835Y cell line was cultured in 1640 medium supplemented with 10% fetal bovine serum and 1% double antibody at 37° C. and 5% CO2, and passaged twice a week. […].
When the cells in the logarithmic growth phase reached the required number for the assay, the cells were harvested, and centrifuged at 1000 rpm for 5 min. The supernatant was removed. The cells were resuspended in culture medium, and counted using a cell counter. […]. After mixing well, the suspension was placed on ice and aspirated with a 1 ml sterile syringe. 0.2 ml of cell suspension was inoculated subcutaneously in the right armpit of each mouse. That is, each mouse was inoculated with 1×10^6 Ba/F3-TEL-FLT3-D835Y cells. After inoculation, the tumor growth was observed day by day. The mice were randomly grouped according to tumor volume when the average tumor volume reached about 175.77 mm^3. Mice were dosed according to their body weight (10 μL/g).
After the start of dosing, the body weight and tumor size of the mice were measured twice a week. Tumor volume was calculated according to the formula: Tumor volume (mm^3)=½×(a×b^2) (where a represents the long diameter and b represents the short diameter).

[4] = Assay of solubility (37° C., 24 hours stirring, HPLC); type: physicochemical
Method: Assay method: The crystal form C of the compound of formula (I) was weighed and added to a 4 mL glass vial, and then 2 mL of solvent was added. The mixture was mixed well and a magnet bar was added to the above suspension. The suspension was stirred on a heater with magnetic stirring (37° C., protected from light). After 24 hours of stirring, a sample was taken. The resulting sample solution was quickly centrifuged. The supernatant was diluted to the appropriate multiple, and the concentration was determined by HPLC (unit: mg/mL).

[5] = In vivo pharmacokinetic assay in mice; set-up: species or system CD-1 male mice; conditions: male, CD-1, mouse, plasma; for Tmax: read-out: Tmax; for Vd: read-out: Vdss
Method: CD-1 male mice aged 7 to 10 weeks were selected. The doses for intravenous and oral administration were 1 mg/kg and 2.5 mg/kg, respectively. The mice were fasted for at least 12 hours before the administration, and resumed feeding 4 hours after the administration. The mice had free access to water throughout the assay period.
as §1, with “4,” for “4, 6,”, “30” for “200”, “saphenous” for “jugular”

[6] = test system: human biphenotypic B bone marrow mononuclear leukemia cell MV4-11 subcutaneous xenograft tumor; test: Inhibition of MV4-11 subcutaneous xenograft tumor in vivo; set-up: species or system nude mice
Method: In this assay, the anti-tumor effect of the compounds was evaluated using a nude mice model of subcutaneous xenograft tumor of human biphenotypic B bone marrow mononuclear leukemia cell MV4-11.
Human biphenotypic B bone marrow mononuclear leukemia cell MV4-11 was cultured in vitro in suspension with a RPMI1640 medium supplemented with 10% fetal bovine serum, 100 U/mL penicillin and 100 μg/mL streptomycin in a 5% CO2 cell incubator at 37° C. Routine passaging was performed twice a week. Cells in the logarithmic growth phase were collected, counted and then used for inoculation.
0.2 mL (1×10^7) of MV4-11 cells (plus matrigel, with a volume ratio of 1:1) were inoculated subcutaneously on the right back of each mouse. The grouping and dosing were started when the average tumor volume reached about 140-200 mm^3.
The diameter of the tumor was measured with vernier calipers twice a week. The formula for calculating the tumor volume is: V=0.5a×b^2, where a and b represent the long and short diameters of the tumor, respectively.

[7] = test system: human acute myeloma MOLM-13 cell line subcutaneous xenograft; test: Inhibition of Molm-13 subcutaneous xenograft tumor in vivo; set-up: species or system NOD/SCID female mice; conditions: for Average tumor volume Day 0: Day 0, before dosing; for % Inhibition rate on day 11 / % Inhibition rate on day 15 / Average tumor volume Day 11 / Average tumor volume Day 15: Oral, Once a day
Method: The purpose of this assay is to evaluate the pharmacodynamics of the compounds in the NOD/SCID female mice model of human acute myeloma MOLM-13 cell line subcutaneous xenograft.
MOLM-13 cells were cultured in RPMI-1640 medium containing 10% fetal bovine serum. The MOLM-13 cells were collected in the exponential growth phase, and resuspended in PBS to a suitable concentration for subcutaneous tumor inoculation in […].
The assay mice were inoculated with 5×10^6 MOLM-13 cells resuspended in 0.1 ml of PBS (0.1 ml per mouse) subcutaneously on the right back. Tumor growth was regularly observed. When the tumor grew to an average volume of 98 mm^3, the mice were randomly divided into groups and administered according to tumor size and body weight of the mice.
After the start of administration, the body weight and tumor size of the mice were measured three times a week. The formula for calculating the tumor volume is: tumor volume (mm^3)=½×(a×b^2) (where a represents the long diameter and b represents the short diameter).

[8] = Oral administration (2.5 mg/kg)
[9] = male, SD, rat, plasma, Oral, 2.5 mg/kg
[10] = male, SD, rat, plasma, iv, Injection, 1 mg/kg

Structure (SMILES): CCc1nc(C(N)=O)c(Nc2ccc(N3CCC4(CCN(C)CC4)CC3)c(C)c2)nc1NC1CCOCC1
Cmax ([1]; Oral, 20 mg/kg): 483 nM
F% ([1]; Oral, 20 mg/kg): 93%
Tmax ([1]; Oral, 20 mg/kg): 7.00 h
Cmax [2]: 527 nM
F% [2]: 41.0%
Tmax [2]: 9.00 h
Average tumor volume Day 0 ([3]; 1 mg/kg group): 176 ± 2 mm^3
% Inhibition rate ([3]; 1 mg/kg): 62%
Average tumor volume Day 15 ([3]; 1 mg/kg): 1160 ± 99 mm^3
Average tumor volume Day 0 ([3]; 3 mg/kg group): 177 ± 2 mm^3
% Inhibition rate ([3]; 3 mg/kg): 80%
Average tumor volume Day 15 ([3]; 3 mg/kg): 683 ± 45 mm^3
Average tumor volume Day 0 ([3]; 6 mg/kg group): 177 ± 2 mm^3
% Inhibition rate ([3]; 6 mg/kg): 103%
Average tumor volume Day 15 ([3]; 6 mg/kg): 77 ± 13 mm^3
Solubility ([4]; Biological medium FaSSIF, 37° C.): 110 µg/mL (≈ 211 µM)
Solubility ([4]; Biological medium FeSSIF, 37° C.): 1110 µg/mL (≈ 2130 µM)
Solubility ([4]; Biological medium SGF, 37° C.): 1490 µg/mL (≈ 2860 µM)
Solubility ([4]; Buffer solution pH 1.0, 37° C.): >10000 µg/mL
Solubility ([4]; Buffer solution pH 3.8, 37° C.): >10000 µg/mL
Solubility ([4]; Buffer solution pH 4.5, 37° C.): >10000 µg/mL
Solubility ([4]; Buffer solution pH 5.5, 37° C.): 810 µg/mL (≈ 1550 µM)

AUC(0-t) [5, 8]: 0.0745 µM·h
Cmax [5, 8]: 13.4 nM
bioavailability [5, 8]: 7.39%
half-life [5, 8]: 7.57 h
Tmax [5, 8]: 1 h
AUC(0-t) ([5]; iv, Injection (1 mg/kg)): 0.403 µM·h
clearance ([5]; iv, Injection (1 mg/kg)): 73.4 mL/min/kg
half-life ([5]; iv, Injection (1 mg/kg)): 2.13 h
Vd ([5]; iv, Injection (1 mg/kg)): 8.93 L/kg
Structure (SMILES): CCc1nc(C(N)=O)c(Nc2ccc(N3CCC4(CCN(C)CC4)CC3)c(OC)c2)nc1NC1CCOCC1 [Compound A]

AUC(0-t) [5, 8]: 0.501 µM·h
Cmax [5, 8]: 85.3 nM
bioavailability [5, 8]: 33.1%
half-life [5, 8]: 5.59 h
Tmax [5, 8]: 1 h
AUC(0-t) ([5]; iv, Injection (1 mg/kg)): 0.605 µM·h
clearance ([5]; iv, Injection (1 mg/kg)): 46.7 mL/min/kg
half-life ([5]; iv, Injection (1 mg/kg)): 2.09 h
Vd ([5]; iv, Injection (1 mg/kg)): 7.47 L/kg
AUC(0-t) [1, 9]: 0.361 µM·h
Cmax [1, 9]: 29.1 nM
bioavailability [1, 9]: 24.6%
Tmax ([1]; male, SD, rat, plasma, Oral, 2.5 mg/kg, read-out: Tmax): 6 h
AUC(0-t) [1, 10]: 0.587 µM·h
clearance [1, 10]: 44 mL/min/kg
half-life [1, 10]: 2.73 h
Vd ([1]; male, SD, rat, plasma, iv, Injection, 1 mg/kg, read-out: Vdss): 10.2 L/kg
Structure (SMILES): CCc1nc(C(N)=O)c(Nc2ccc(N3CCC(N4CCN(C)CC4)CC3)c(OC)c2)nc1NC1CCOCC1 [Compound B, reference compound]
% Inhibition rate on day 14 ([6]; 1.5 mg/kg, Oral, Once a day): 57.7%
Average tumor volume Day 14 ([6]; 1.5 mg/kg, Oral, Once a day, Day 14): 431 mm^3
Average tumor volume Day 0 ([6]; Day 0, one value for all groups, before dosing): 149 mm^3
Average tumor volume Day 0 ([7]; 15 mg/kg group): 98.02 mm^3
% Inhibition rate on day 11 ([7]; 15 mg/kg): 59%
% Inhibition rate on day 15 ([7]; 15 mg/kg): 79%
Average tumor volume Day 11 ([7]; 15 mg/kg): 401.07 mm^3
Average tumor volume Day 15 ([7]; 15 mg/kg): 566.95 mm^3
Average tumor volume Day 0 ([3]; 3 mg/kg group): 176 ± 2 mm^3
% Inhibition rate ([3]; 3 mg/kg): 68%
Average tumor volume Day 15 ([3]; 3 mg/kg): 993 ± 79 mm^3

Structure (SMILES): CCc1nc(C(N)=O)c(Nc2ccc(N3CCC4(CCN(C)CC4)CC3)c(C)c2)nc1NC1CCOCC1 [Compound of formula (I)]
Average tumor volume Day 0 ([7]; 15 mg/kg group): 98.34 mm^3
% Inhibition rate on day 11 ([7]; 15 mg/kg): 92%
% Inhibition rate on day 15 ([7]; 15 mg/kg): 94%
Average tumor volume Day 11 ([7]; 15 mg/kg): 156.85 mm^3
Average tumor volume Day 15 ([7]; 15 mg/kg): 223.09 mm^3
Average tumor volume Day 0 ([7]; 50 mg/kg group): 98.05 mm^3
% Inhibition rate on day 11 ([7]; 50 mg/kg): 106%
% Inhibition rate on day 15 ([7]; 50 mg/kg): 104%
Average tumor volume Day 11 ([7]; 50 mg/kg): 53.08 mm^3
Average tumor volume Day 15 ([7]; 50 mg/kg): 0 mm^3
